Patent US12622913B2, “Folate salts for medical use” (APROFOL AG, priority 2018, dated 2026)

What was measured:
[1] = Solubility determination of selected folate salts in solvents; type: physicochemical; conditions: mass-% (m/m), 20° C.; for Solubility in DMSO: solvent DMSO; for Solubility in EtOH: solvent EtOH; for Solubility in MeOH: solvent MeOH; for Solubility in Glycerine: solvent glycerine; for Solubility in i-PrOH: solvent i-PrOH; for Solubility in n-PrOH: solvent n-PrOH
Method: Solubility determination of selected folate salts was in general performed as follows:
A quantity of the salt corresponding to the expected solubility (between 1-100 mg) was provided and mixed with increments of the respective solvent until a solution was formed.

[2] = glycerine; previous data confirmed by the test; cited from earlier work
[3] = cited from earlier work

Compound | Solubility in DMSO [1] [%] | Solubility in EtOH [1] [%] | Solubility in MeOH [1] | Solubility in Glycerine [1] [%] | Solubility in i-PrOH [1] [%] | Solubility in n-PrOH [1] [%] | Solubility of calcium salt, previous data [2] | Solubility in dilute acid or dilute alkali ([3]; dilute acid or dilute alkali) | Solubility in organic solvents ([3]; organic solvents) | Solubility in water ([3]; water at 25° C.)
5-Formyl-(6S)-tetrahydrofolic acid di acetylcholine salt [FTHF di acetylcholine] | 0.25 | 55.80 | 55.80% | 24.10 | 0.50 | 55.90 | – | – | – | –
CN1c2c([nH]c(N)nc2=O)NC[C@@H]1CNc1ccc(C(=O)N[C@@H](CCC(=O)[O-])C(=O)[O-])cc1.[Ca+2] [calcium salt of 5-methyl-(6S)-tetrahydrofolic acid] | – | – | – | – | – | – | approximately 1% | – | – | –
5-Methyl-(6S)-tetrahydrofolic acid di acetylcholine salt [MTHF di acetylcholine] | 47.62 | 50.00 | >>50% | 24.10 | 50.00 | 50.00 | – | – | – | –
5-methyl-tetrahydrofolic acid glucosamine salt [5-MTHF-glucosamine] | – | – | – | – | – | – | – | soluble | insoluble | very soluble
